Where two headings read alike, the source gives them in different places.
What was measured:
A549 = test: Cytotoxicity IC50 on A549 cells; assay type: cell-based; settings: Homo sapiens
Protocol: (§1) The preceding KB cells are then incubated in 6- or 96-well plates in the presence of the test compounds of the invention, dissolved in dimethyl sulfoxide (DMSO). The content of surviving cells is measured by the “colony-forming assay” test, in which the cells are redistributed at a density of 100 to 300 cells per well in 24-well plates, for a period of 8 days, and are then stained with Leishman's reagent (0.2% in methanol). The colonies of more than 50 cells are counted visually under a microscope, the survival rate being expressed on the colonies formed in the presence of the compounds of the invention relative to cell colonies not treated with said compounds. The determination of the IC50 values (concentration of compounds in the reaction medium for which 50% of the tested tumor cells survived the treatment) enables comparison of the efficacy of these compounds.
(§2) Table 4 presents the results of the IC50 (cytotoxicity) on different cell lines, according to the protocol described previously, obtained for compounds I14 and I20.

MCF7R = test: Cytotoxicity IC50 on MCF7R cells; assay type: cell-based; settings: Homo sapiens
Protocol: as §1, §2

caspases 8 = test: Activation of caspases 8 in HL60 cells; assay type: cell-based, human; settings: 48 hours, 1 μM, 0.1 μM and 0.01 μM
Protocol: (§3) In this example, in order to show the role of compounds I14 and I20 in this effect, specific products were used: DEVD for caspases 3/7, IEDT for caspases 8, and LEHD for caspases 9. Moreover, colchicine was used as reference compound that induces this activity of caspases. I14 and I20 were tested at three concentrations: 1 μM, 0.1 μM and 0.01 μM.
(§4) The experiments were performed by placing I14 and I20 in contact with HL60 cells for 48 hours, according to the standard protocol described by Margolin et al., J. Biol. Chem. (1997), 272, p. 7223, using standard commercially available diagnostic kits (Calbiochem, USA).

HL60 = test: Cytotoxicity IC50 on HL60 cells; assay type: cell-based; settings: Homo sapiens, HL-60
Protocol: as §1, §2

MCF7 = test: Cytotoxicity IC50 on MCF7 cells; assay type: cell-based; settings: Homo sapiens
Protocol: as §1, §2

U87/GFP cells [1] = test: Antiproliferative effect on U87/GFP cells (flash cytometry); assay type: cell-based, human
Protocol: For the U-87/GFP cells, the control of cell proliferation and migration in the presence of the compounds (I) of the invention is performed via a colorimetric method (MTS) and is performed according to known standard protocols. The methodologies implemented use flash cytometry (Trophos S.A., Marseilles, France). The flash cytometry technique involves fluorescence, which consists of irradiating a compound at a set wavelength and of recording the fluorescence emitted at another wavelength. This technique is performed with a flash cytometer and adapted for 96-well test plates. The excitation and emission wavelengths in the context of use of this fluorescence are located in the 485-495 nm range. The measured fluorescence expresses the amount of cells surviving after treatment with the compounds of the invention. The publications by Luby-Phelps K. et al., J. Histochemistry and Cytometry, 2003, 51, 271-274 and Modarai B. et al., Circulation, 2005, 111, 2645-2653 may be mentioned by way of reference for the above methods.
The cells of the U87/GFP lines are cultured in 96-well plates according to a standard methodology described by Bajetto et al., Neurochemistry International, 2006, 43, 31-38 in the presence of different concentrations of the compounds of the invention.
The cell proliferation is determined and quantified according to standard methods known to those skilled in the art. A 100% proliferation is attributed to the untreated cells and a percentage less than 100% is obtained when the same cells are treated with the compounds of the invention.
(§5) The cell proliferation and migration are determined by imaging using a flash cytometer (Trophos S.A., Marseilles, France), and the calculations are performed using the “Metamorph 4.6” imaging signal processing software (Molecular Devices, USA), the use of which, which is known in the field, makes it possible to determine the above two effects independently of each other.

HTC15 = test: Cytotoxicity IC50 on HTC15 cells; assay type: cell-based; settings: Homo sapiens
Protocol: as §1, §2

HTC116 = test: Cytotoxicity IC50 on HTC116 cells; assay type: cell-based; settings: Homo sapiens
Protocol: as §1, §2

caspases 3/7 = test: Activation of caspases 3/7 in HL60 cells; assay type: cell-based, human; settings: 48 hours
Protocol: as §3, §4

K562 = test: Cytotoxicity IC50 on K562 cells; assay type: cell-based; settings: Homo sapiens
Protocol: as §1, §2

SF268 = test: Cytotoxicity IC50 on SF268 cells; assay type: cell-based; settings: Homo sapiens, SF-268
Protocol: as §1, §2

PC3 = test: Cytotoxicity IC50 on PC3 cells; assay type: cell-based; settings: Homo sapiens, PC-3
Protocol: as §1, §2

U87/GFP cells [2] = test: Antimigratory effect on U87/GFP cells (scratch technique); assay type: cell-based, human
Protocol: The determination of the antimigratory activity of the compounds (I) of the invention on these same cell lines, cultured in MEM medium (Minimum Essential Medium) is performed via the “scratch” technique that consists in scratching a cell lawn using a micropipette cone. By comparison with these same cells not containing the compounds of the invention, the antimigratory effect is determined. A 100% migration is attributed to the untreated cells, whereas, as a function of the concentration of the compounds (I) of the invention, total stoppage of migration is determined by observation of the “scratch” remaining unfilled by the cell migration, by means of computer software.
as §5

HepG2 = test: Cytotoxicity IC50 on HepG2 cells; assay type: cell-based; settings: Homo sapiens
Protocol: as §1, §2

caspases 9 = test: Activation of caspases 9 in HL60 cells; assay type: cell-based, human; settings: 48 hours, 1 μM, 0.1 μM and 0.01 μM
Protocol: as §3, §4

OV3 = test: Cytotoxicity IC50 on OV3 cells; assay type: cell-based; settings: Homo sapiens
Protocol: as §1, §2

KB cells = test: Cytotoxicity / cell viability on KB cells (colony-forming assay); assay type: cell-based, human; settings: for IC50: Homo sapiens, KB, read-out: Cytotoxicity on KB cells (IC50)
Protocol: Cancerous KB cells are also considered, to determine the cell viability (or survival rate). This cell viability is determined according to the teaching of Nicholson K. M. et al., British Journal of Cancer, 1999, 81, 423-430.
KB cells are human carcinoma cell lines, KB-3-1. These cells are maintained in a culture medium, “Dulbecco's modified Eagle's medium” (DMEM—Sigma), which contains 0.11 g/l of sodium pyruvate and 4.5 g/l of glucose, supplemented with 10% (v/v) fetal calf serum, penicillin (32 μg/ml) and streptomycin (50 μg/ml). The cells are cultured as monolayers and are incubated at 37° C. in a humid atmosphere (95% air/5% CO2).
as §1

Structure (SMILES): Cc1ccc(CN(Cc2ccc(O)c3ncccc23)c2ccc(O)c3ncccc23)cc1 [I14, 5-(((8-hydroxyquinolin-5-yl)(4-methylbenzyl)amino)methyl)quinolin-8-ol]
- IC50 (A549): 4.3 ± 0.1 nM
- IC50 (MCF7R): 37.3 ± 28 nM
- effect on the activation of caspases 8 (caspases 8): no effect
- IC50 (HL60): 32.7 ± 6.6 nM
- IC50 (MCF7): 5.4 ± 0.9 nM
- inhibition at 0.5 µM (U87/GFP cells [1]; Homo sapiens, at 0.5 μM, read-out: Antiproliferative effect on U87/GFP cells: percentage inhibition): 65%
- IC50 (U87/GFP cells [1]; concentration giving 65% inhibition of proliferation): 500 nM
- IC50 (HTC15): 6 ± 7.3 nM
- IC50 (HTC116): 3.2 ± 1.2 nM
- effect on the activation of caspases 3/7 (caspases 3/7; 0.01 μM): neither 114 nor 120 has an effect
- effect on the activation of caspases 3/7 (caspases 3/7; 1 μM and 0.1 μM): strong effect
- IC50 (K562): 40.8 ± 22 nM
- IC50 (SF268): 178 ± 83 nM
- IC50 (PC3): 343 ± 125 nM
- inhibition at 0.5 µM (U87/GFP cells [2]; Homo sapiens, at 0.5 μM, read-out: Antimigratory effect on U87/GFP cells: percentage inhibition): 40%
- IC50 (U87/GFP cells [2]; concentration giving 40% inhibition of migration): 500 nM
- IC50 (HepG2): 52.1 ± 14.5 nM
- effect on the activation of caspases 9 (caspases 9): no effect
- IC50 (OV3): 8 ± 0.4 nM
- IC50 (KB cells; first value of two experiments performed in parallel): 2.6 nM
- IC50 (KB cells; second value of two experiments performed in parallel): 1.4 nM
- Cytotoxicity on KB cells (percentage inhibition of cell viability) (KB cells; at 1 μM, relative to reference without compound): 90% at 1 μM
